Measured values published in patent publication US12029730B2, “Pharmaceutical composition for preventing or treating cancer, containing N-1H-benzimidazol-2-yl-3-(1H-pyrrole-1-yl)benzamide as active ingredient” (KOREA INSTITUTE OF RADIOLOGICAL & MEDICAL SCIENCES, priority 2018, dated 2024).

Assays:
MASTL kinase = target: T1, MASTL kinase (Homo sapiens, UniProt Q96GX5); experiment: ADP-Glo luminescence-kinase assay; type: biochemical; settings: 10 μM ATP, FIG. 2
T1 construct: GST; purchased Thermo Fisher Scientific
T1 sequence (Q96GX5 1-879): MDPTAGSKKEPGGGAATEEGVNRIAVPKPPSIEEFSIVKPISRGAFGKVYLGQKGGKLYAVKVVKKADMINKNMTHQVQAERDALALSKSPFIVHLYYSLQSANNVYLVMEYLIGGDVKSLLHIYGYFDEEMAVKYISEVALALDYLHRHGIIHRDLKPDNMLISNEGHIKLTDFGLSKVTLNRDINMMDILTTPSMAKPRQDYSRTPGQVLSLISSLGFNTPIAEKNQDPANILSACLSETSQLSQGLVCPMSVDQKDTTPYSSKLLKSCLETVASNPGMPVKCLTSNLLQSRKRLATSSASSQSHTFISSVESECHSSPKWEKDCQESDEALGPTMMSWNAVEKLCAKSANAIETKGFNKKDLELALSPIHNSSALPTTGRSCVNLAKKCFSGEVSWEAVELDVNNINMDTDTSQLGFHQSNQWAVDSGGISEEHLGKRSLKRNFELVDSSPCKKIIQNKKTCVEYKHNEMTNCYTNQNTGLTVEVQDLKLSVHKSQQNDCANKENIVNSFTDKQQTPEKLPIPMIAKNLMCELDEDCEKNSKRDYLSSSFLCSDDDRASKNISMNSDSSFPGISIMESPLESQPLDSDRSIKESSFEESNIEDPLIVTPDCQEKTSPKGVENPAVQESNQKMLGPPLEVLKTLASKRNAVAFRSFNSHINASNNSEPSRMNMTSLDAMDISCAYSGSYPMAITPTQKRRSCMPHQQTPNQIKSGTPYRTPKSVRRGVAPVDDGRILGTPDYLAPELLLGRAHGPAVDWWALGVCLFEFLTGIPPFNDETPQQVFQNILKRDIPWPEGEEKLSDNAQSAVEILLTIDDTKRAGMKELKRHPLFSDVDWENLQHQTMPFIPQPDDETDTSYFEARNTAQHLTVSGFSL
Experimental: A protein kinase analysis was performed using the ADP-Glo™ kinase assay kit according to the standard protocol provided by Promega. […] A solution of a serial 2-fold dilution of the MASTL kinase inhibitor (GKI-1, MKI-1 or AT13148) was prepared and MASTL kinase […], ENSA 250 ng and 10 μM ATP was mixed in a kinase reaction buffer consisting of 100 mM Tris-HCl (pH 7.5), 30 mM MgCl2, 2 mM DTT, 1 mM EDTA and 10 μM ultra-pure ATP (Promega). Thereafter, the mixture was reacted at 30° C. for 30 minutes in an E-tube, and a kinase detection reagent was added thereto, followed by reacting for 30 minutes to detect the converted ATP. Then, the reacted product was transferred to a 384-well white plate, and […] was read using a SpectraMax i3× Multi-Mode Microplate Reader (Molecular Devices), and GKI-1, N-(4-chlorophenyl)-3-(1H-pyrazol-4-yl)aniline and AT13148 were used as positive controls. The effect of inhibiting kinase activity of GKI-1 and MKI-1 and its IC50 confirmed through the reading result were shown in FIG. 2. In addition, enzyme activity assay was performed under the same conditions except for the treatment of each concentration of MKI-1 (0, 6.25, 12.5, 25, 50 and 100 μM) through western blot, and it was shown in FIG. 3.

BT549 cells = experiment: WST-8 cell viability assay, breast cancer cell line BT549; type: cell-based, human; settings: FIG. 6; for cell viability, BT549: 3.70, 11.11, 33.33 and 100 μM
Experimental: In addition, the cell line in this experiment was distributed from ATCC (American Type Culture Collection; Manassas, VA). Human-derived tumor cell lines, breast cancer cell lines MCF7 and T47D was cultured in DMEM medium containing 10% fetal bovine serum (FBS; HyClone, South Logan, UT) and 1% penicillin/streptomycin (Corning, NY, USA) at 37° C. and 5% CO2, and the BT549 breast cancer cell line was cultured in RPMI 1640 (Welgene, Daegu, Korea) as a medium used under the same conditions. Human-derived normal cell line MCF10A was cultured in DMEM/F12 (Invitrogen) medium containing 5% horse serum (Invitrogen), 1% penicillin/streptomycin, 20 ng/ml EGF (Peprotech, London, UK), […] (Sigma-Aldrich, MO, USA), 100 ng/ml cholera toxin (Cholera Toxin, Sigma-Aldrich) and 10 μg Insulin (Sigma-Aldrich) at 37° C. and 5% CO2.
In order to confirm whether the selected MKI-1 can kill only cancer cells, an experiment was performed by treating with MKI-1 and measuring whether the cell viability of breast cancer cell lines and normal cell lines was changed. WST-8 analysis (Cyto X™ cell viability assay kit, LPS solution, Daejeon, Korea) was performed according to the manufacturer's protocol. Cancer cells MCF7 and BT549 and normal cell line MCF10A cells were inoculated into a 96-well plate, cultured for 24 hours, and then treated with MASTL kinase inhibitors at various concentrations (3.70, 11.11, 33.33 and 100 μM). Thereafter, the absorbance was measured at 450 nm using a Versamax micro plate reader (Molecular Devices, CA, USA), and the results were shown in FIG. 6.

MCF7 cells = experiment: 3D culture spheroid formation; type: cell-based, human; settings: MCF7 3D culture, AT13148 2 μM, GKI-1 10 μM, MKI-1 10 μM, FIG. 9
Experimental: 3D culture was performed according to the protocol of the manufacturing company TheWell Bioscience. It was inoculated into 24-wells containing a DMEM mixture containing 10,000 MCF7 cells in an MCF7 cell:hydrogel solution in a ratio of 1:3 (v/v) and VitroGel™ 3D-RGD diluted with 0.1% PBS in a ratio of 1:3 (v/v) of a hydrogel:diH2O. Thereafter, incubation was performed at 37° C. for 15 minutes to stabilize the VitroGel 3D-RGD hydrogel. To cover the hydrogel, the same volume of DMEM as the hydrogel was added, and the next day, the hydrogel was treated with a DMSO base drug containing DMSO, AT13148 (2 μM), GKI-1 (10 μM) and MKI-1 (10 μM). The medium was exchanged every 2 days for 14 to 20 days.

SMILES | IC50 (MASTL kinase) | cell viability, BT549 (BT549 cells) | size of cancer cell spheroid (MCF7 cells) | survival rate of cancer cells, BT549 (BT549 cells; 33.33 μM or more)
Clc1ccc(Nc2cccc(-c3cn[nH]c3)c2)cc1 [GKI-1, N-(4-chlorophenyl)-3-(1H-pyrazol-4-yl)aniline, reference compound] | 12 µM | decreases cell viability in a dose-dependent manner | hardly decreased | –
O=C(Nc1nc2ccccc2[nH]1)c1cccc(-n2cccc2)c1 [MKI-1, N-1H-benzimidazol-2-yl-3-(1H-pyrrol-1-yl) benzamide] | 11.6 µM | decreases cell viability in a dose-dependent manner | significantly reduced | significantly reduced
